Entries after “also recorded” stand apart in the source; their conditions may differ.
How the values were obtained:
[1] = tested on: dermal fibroblasts derived from a diabetic patient; test: Intracellular triglyceride content of dermal fibroblasts cultured with fatty acids; assay type: cell-based, human; details: 2 days of culture; for potency for reducing triglyceride compared with other fatty acid: Example 4-2, 125 μM and 500 μM, FIG. 7
From the text: A portion of skin tissue was sampled from a diabetic patient after the patient's consent. This sample skin tissue was subjected to primary culture (culture medium: DMEM/10% FBS) by a tissue fragment culture method (Explant method) and subsequent successive passages, and then developed into a cell line. The dermal fibroblasts derived from the patient were used to examine the effect of various fatty acids on intracellular triglyceride content. The intracellular triglyceride content of the dermal fibroblasts derived from the diabetic patient was about 5 times higher than the average intracellular triglyceride content of dermal fibroblasts derived from three healthy subjects. The long-chain fatty acids used were palmitic acid (C16:0), oleic acid (C18:1), linoleic acid ([…]), arachidonic acid (C20:4), and […] (C20:5). The medium-chain fatty acids used were heptanoic acid (C7:0) and capric acid (C10:0). These different fatty acids were separately added at 50 μM and 500 μM to the media of dermal fibroblasts from the diabetic patient described above. After 2 days of culture, the cells were collected, and the intracellular triglyceride content was measured using a triglyceride quantification kit (BioVision). The medium-chain fatty acids used were capric acid (C10:0), caprylic acid (C8:0), and 8-methylnonanoic acid ([…]). These different fatty acids were separately added at 125 μM and 500 μM to the media of dermal fibroblasts from the diabetic patient described above. After 2 days of culture, the cells were collected, and the intracellular triglyceride content was measured using a triglyceride quantification kit (BioVision). For controls, 500 μM palmitic acid (C16:0) or no fatty acid was added to the medium of the same dermal fibroblasts as those used above.

[2] = tested on: TG deposit atherosclerosis in the coronary artery; test: Coronary CT angiography, color-coded images of lipid accumulation in the coronary artery; assay type: in vivo, human
Method: Before and 50 days after the start of the tricaprin/trisdecanoin diet, a standard coronary CT angiography was performed to generate three-dimensional (3D) DICOM images of the left anterior descending coronary artery. The images were resampled to a voxel size of 0.1 mm^3 and color-coded according to CT values of individual voxels. Smoothing was applied between adjacent voxels. Colors were coded as follows: light gray (yellow in the color image): −25 HU to 0 HU (massive lipid accumulation); medium gray (orange in the color image): 0 HU to 40 HU (moderate lipid accumulation); dark gray (green in the color image): 40 HU to 125 HU (no lipid accumulation).
(§1) Before and 4 years after the start of the tricaprin/trisdecanoin diet, a standard coronary CT angiography was performed, and the images of the inside of the left anterior descending coronary artery were color-coded in the same manner as described in Example 1. The images of the designated segment of the coronary artery were analyzed with a 3D image analysis system SYNAPSE VINCENT v5.5 (FUJIFILM Corporation) to examine changes in lipid accumulation and vascular lumen size in the designated segment. In the image analysis, the area with CT values ranging −25 to 40 HU was regarded as lipid accumulation, and the area with CT values ranging 215 to 700 HU was regarded as the vascular lumen.
(§2) Angiograms of the coronary artery were taken before and 3 months after the start of the tricaprin/trisdecanoin diet. A standard coronary CT angiography was also performed, and the images were color-coded in the same manner as described in Example 1. The images of the designated segment of the coronary artery were subjected to 3D image analysis in the same manner as described in Example 2 to examine changes in lipid accumulation and vascular lumen size in the designated segment.

[3] = tested on: TG deposit atherosclerosis in the coronary artery; test: 3D image analysis (SYNAPSE VINCENT) of lipid accumulation and vascular lumen size in designated coronary segment; assay type: in vivo, human
Method: as §1, §2

[4] = tested on: coronary arteries of patient with idiopathic TGCV; test: Angiograms of the coronary artery, blood flow; assay type: in vivo, human; details: Example 3 patient, refractory angina
Method: as §2

[5] = Serum lipid levels before and after the start of the tricaprin/trisdecanoin diet; assay type: in vivo, human; details: for LDL cholesterol, serum / HDL cholesterol, serum / TG (triglyceride), serum: After treatment
Method: (§3) The mean values of the triglyceride, LDL cholesterol, and HDL cholesterol levels measured before the start of the tricaprin/trisdecanoin diet were compared to those measured for 4 years after the start of the tricaprin/trisdecanoin diet. […] The LDL cholesterol level was under control within the normal range (60 to 119 mg/dL).
as §3, with “3 months” for “4 years”, “at a level lower than” for “within”

[6] = tested on: recurrent cerebral infarction; test: Clinical course of the patient during the tricaprin/trisdecanoin diet; assay type: in vivo, human; details: Example 2 patient with history of cerebral infarction; 1.5 g/day for 4 years
From the text: A person who had suffered from refractory angina for years. The patient had diabetes with a history of middle cerebral artery occlusion and cerebral infarction. The patient presented to hospital with a chief complaint of rest and nocturnal angina. […] Their chest pain was refractory to existing medications (sublingual nitroglycerin, calcium channel blockers, β-blockers, antiplatelet agents, and statins) and rather worsened. […] The patient received tricaprin/trisdecanoin three times per day after meals in a total daily dose of 1.5 g for 4 years.

[7] = target: T1, PCSK9 (Homo sapiens, UniProt Q8NBP7); details: evolocumab group (484 patients) on statin treatment, cited from earlier work
T1 construct: randomly assigned to receive evolocumab (monoclonal antibody against PCSK9); host or cells: patients (in vivo, endogenous circulating PCSK9)
T1 sequence (Q8NBP7 153-692): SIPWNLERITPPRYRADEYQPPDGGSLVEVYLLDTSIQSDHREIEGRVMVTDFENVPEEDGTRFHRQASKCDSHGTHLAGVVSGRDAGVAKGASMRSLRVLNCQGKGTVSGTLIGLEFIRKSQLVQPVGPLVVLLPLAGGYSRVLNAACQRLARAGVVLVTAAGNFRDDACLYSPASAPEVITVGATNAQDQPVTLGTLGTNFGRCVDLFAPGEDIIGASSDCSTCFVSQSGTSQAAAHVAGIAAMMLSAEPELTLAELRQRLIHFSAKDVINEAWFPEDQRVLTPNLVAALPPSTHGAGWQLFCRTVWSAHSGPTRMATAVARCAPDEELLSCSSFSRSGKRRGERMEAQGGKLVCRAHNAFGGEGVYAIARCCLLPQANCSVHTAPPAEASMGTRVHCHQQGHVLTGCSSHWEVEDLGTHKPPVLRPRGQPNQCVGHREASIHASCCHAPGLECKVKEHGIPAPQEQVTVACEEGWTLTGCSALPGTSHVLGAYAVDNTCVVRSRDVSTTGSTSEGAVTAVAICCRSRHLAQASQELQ

[8] = Example 2 patient, 1.5 g/day for 4 years
[9] = Example 3 patient, 4.5 g/day for 3 months

Molecule: CC(C)CCCCCCC(=O)O [8-methylnonanoic acid]
- potency for reducing triglyceride compared with other fatty acid [1]: more potent medium-chain fatty acids for reducing triglyceride than palmitic acid

Molecule: CCCCCCCCCC(=O)OCC(COC(=O)CCCCCCCCC)OC(=O)CCCCCCCCC [tricaprin/trisdecanoin]
- TG deposit atherosclerosis in the coronary artery (color-coded CT images) ([2]; Example 1 patient, person with ATGL deficiency, 6 to 9 g/day after meals for 50 days, left anterior descending coronary artery): regression of TG deposit atherosclerosis in the coronary artery
- stenosis of the vascular lumen ([2]; Example 2 patient, refractory angina, diabetes, 1.5 g/day for 4 years, segment 7 to 9 cm from coronary ostium, before diet 90% to 75% diffuse stenosis): about 25%
- TG deposit atherosclerosis in the coronary artery [2, 8]: regression of TG deposit atherosclerosis in the coronary artery
- characteristic pattern of TG deposit atherosclerosis (lipid deposition protruding from adventitial toward medial side) [2, 8]: diminished or disappeared
- diameter of the vascular lumen through which the blood flowed [2, 8]: marked enlargement
- TG deposit atherosclerosis in the coronary artery [2, 9]: regression of TG deposit atherosclerosis in the coronary artery
- diameter of the vascular lumen through which the blood flowed [2, 9]: marked enlargement
- Vascular lumen ([3]; % increase vs before diet, Example 2 patient, 1.5 g/day for 4 years, segment designated in FIG. 2, 2.2 cm, CT values 215 to 700 HU): 260% increase
- Vascular lumen ([3]; % increase, Example 3 patient, 4.5 g/day for 3 months, not stented segment Circumflex 7.2 cm): 17% increase
- Vascular lumen ([3]; % increase, Example 3 patient, 4.5 g/day for 3 months, not stented segment LAD 3.7 cm): 48% increase
- Vascular lumen ([3]; % increase, Example 3 patient, 4.5 g/day for 3 months, not stented segment RCA 3.4 cm): 24% increase
- Lipid accumulation ([3]; % reduction vs before diet, Example 2 patient, 1.5 g/day for 4 years, segment designated in FIG. 2, 2.2 cm, CT values -25 to 40 HU): 27% reduction
- Lipid accumulation ([3]; % reduction, Example 3 patient, 4.5 g/day for 3 months, not stented segment Circumflex 7.2 cm): 50% reduction
- Lipid accumulation ([3]; % reduction, Example 3 patient, 4.5 g/day for 3 months, not stented segment LAD 3.7 cm): 53% reduction
- Lipid accumulation ([3]; % reduction, Example 3 patient, 4.5 g/day for 3 months, not stented segment RCA 3.4 cm): 14% reduction
- blood flow to the peripheral coronary arteries ([4]; 4.5 g/day for 3 months): clearly improved
- blood flow in the coronary arteries as a whole ([4]; oral 4.5 g/day for 3 months): improvement in coronary blood flow; also recorded: improvement in the blood flow
- LDL cholesterol, serum ([5]; Mean ± SD over 3 months, Example 3 patient, 4.5 g/day, on statin, before treatment 52 ± 2.9): 54 ± 1.8 mg/dL
- HDL cholesterol, serum ([5]; Mean ± SD over 3 months, Example 3 patient, 4.5 g/day, before treatment 35 ± 1.0): 38 ± 1.0 mg/dL
- TG (triglyceride), serum ([5]; Mean ± SD over 3 months, Example 3 patient, 4.5 g/day, before treatment 78 ± 2.1): 75 ± 11.3 mg/dL
- HDL cholesterol, serum ([5]; Mean ± SD over 4 years, Example 2 patient, 1.5 g/day, before treatment 34.5 ± 0.5): 33 ± 4.0 mg/dL
- LDL cholesterol, serum ([5]; Mean ± SD over 4 years, Example 2 patient, 1.5 g/day, before treatment 95 ± 9.0): 91 ± 13.6 mg/dL
- TG (triglyceride), serum ([5]; Mean ± SD over 4 years, Example 2 patient, 1.5 g/day, before treatment 308 ± 7.5): 334 ± 118.2 mg/dL
- effect on the serum lipid levels [5, 8]: no effect on the serum lipid levels
- effect on the serum lipid levels [5, 9]: no effect on the serum lipid levels
- recurrent cerebral infarction [6]: free from recurrent cerebral infarction

Molecule: CCCCCCCCCC(=O)O [capric acid]
- intracellular triglyceride content relative to control cells (100%) ([1]; Example 4-1, fatty acid added at 50 μM and 500 μM, FIG. 6): reduction in intracellular triglyceride content
- potency for reducing triglyceride compared with other fatty acid [1]: more potent medium-chain fatty acids for reducing triglyceride than palmitic acid

B1: evolocumab: monoclonal antibody against PCSK9 (antibody, chains of the INN, looked up, V domains shown)
VH: EVQLVQSGAEVKKPGASVKVSCKASGYTLTSYGISWVRQAPGQGLEWMGWVSFYNGNTNYAQKLQGRGTMTTDPSTSTAYMELRSLRSDDTAVYYCARGYGMDVWGQGTTVTVSS
VL: ESALTQPASVSGSPGQSITISCTGTSSDVGGYNSVSWYQQHPGKAPKLMIYEVSNRPSGVSNRFSGSKSGNTASLTISGLQAEDEADYYCNSYTSTSMVFGGGTKLTVL
- LDL cholesterol level at week 76 ([7]; 92.6 mg/dL before the start of the trial): 36.6 mg/dL
- LDL cholesterol level at week 76 as % of the level before the start of the trial [7]: about 40%
- percent atheroma volume, reduction at week 76 [7]: 0.95%

Reference: patent publication US12576061B2, “Agent for inducing regression of triglyceride deposit atherosclerosis” (OSAKA UNIVERSITY, priority 2020, dated 2026)
